Consider 33 compounds from patent US12011444B2, “N-substituted indole derivatives as PGE2 receptor modulators” (Idorsia Pharmaceuticals Ltd, priority 2015, dated 2024).

One assay deals with PTGER2 (EP2) (Homo sapiens (Human), UniProt P43116). The experiment in a line: hEP2 b-arrestin assay (PathHunter HEK 293 PTGER2 b-arrestin cells). It is filed as cell-based. Put shortly: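 HEK293 cells expressing ProLink-tagged EP2 and EA-fused β-arrestin 2 (enzyme fragment complementation) were seeded 24 h, pre-incubated with compound 15 min at 37 °C, then stimulated with 5 μM PGE2 (final) for 120 min.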
Sequence of PTGER2 (EP2) (P43116 whole entry, the tested form may be a part): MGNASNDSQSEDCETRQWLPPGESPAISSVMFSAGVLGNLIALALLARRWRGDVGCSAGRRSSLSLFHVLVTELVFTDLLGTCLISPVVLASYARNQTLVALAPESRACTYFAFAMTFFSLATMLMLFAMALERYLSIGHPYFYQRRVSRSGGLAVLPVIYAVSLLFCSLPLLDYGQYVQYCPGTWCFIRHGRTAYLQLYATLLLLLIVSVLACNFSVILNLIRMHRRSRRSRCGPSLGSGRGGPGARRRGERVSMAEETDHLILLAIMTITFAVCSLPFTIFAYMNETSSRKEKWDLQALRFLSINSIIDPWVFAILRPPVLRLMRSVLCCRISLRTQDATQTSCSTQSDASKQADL

The target in the next assay is PTRGER4 (EP4) (Homo sapiens (Human), UniProt P35408). The assay can be described thus: hEP4 b-arrestin assay (PathHunter HEK 293 PTGER4 b-arrestin cells). The assay is classed as cell-based. Put shortly:
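Stably transfected HEK293 cells carrying EP4–ProLink and β-arrestin 2–EA (β-gal fragment complementation), pre-incubated with compound 15 min at 37 °C, then stimulated with PGE2 (20 nM final) for 120 min at 37 °C. Chemiluminescence read after 1 h detection reagent at room temperature; activity per concentration expressed as percent of DMSO control.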

[1] abbreviates: hEP2 b-arrestin assay (values without asterisk).
Where [2] appears, read: hEP4 b-arrestin assay (values without asterisk).
Setting [3] is: antagonistic activity on hEP2, mean where measured multiple times.
Where [4] appears, read: antagonistic activity on hEP4, mean where measured multiple times.

Sequence of PTRGER4 (EP4) (P35408 whole entry, looked up, the tested form may be a part): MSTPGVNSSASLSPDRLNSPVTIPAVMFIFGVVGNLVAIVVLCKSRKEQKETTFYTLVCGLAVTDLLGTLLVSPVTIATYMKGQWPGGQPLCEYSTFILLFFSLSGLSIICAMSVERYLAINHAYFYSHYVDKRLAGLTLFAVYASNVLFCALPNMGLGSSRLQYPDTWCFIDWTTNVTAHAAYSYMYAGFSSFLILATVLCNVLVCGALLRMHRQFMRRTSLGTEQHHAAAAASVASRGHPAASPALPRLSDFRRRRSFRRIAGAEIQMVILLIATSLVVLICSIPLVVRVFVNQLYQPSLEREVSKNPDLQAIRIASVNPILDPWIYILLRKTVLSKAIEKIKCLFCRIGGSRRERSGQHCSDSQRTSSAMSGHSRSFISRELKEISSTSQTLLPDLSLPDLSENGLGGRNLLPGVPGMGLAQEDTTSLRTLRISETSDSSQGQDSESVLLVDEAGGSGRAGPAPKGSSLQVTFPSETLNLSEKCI

Turning to `CCNc1csc(-c2cc(NCCn3c(C)cc4c(C)cc(F)cc43)ncn2)c1` [Example 1069, [6-(4-Ethylamino-thiophen-2-yl)-pyrimidin-4-yl]-[2-(6-fluoro-2,4-dimethyl-indol-1-yl)-ethyl]-amine], the results for the IC50 at PTGER2 (EP2) (setting [1]) and on PTRGER4 (EP4) (setting [2]) were 9 nM and 41 nM, respectively.
Regarding `CCNc1csc(-c2cc(NCCn3c(C)cc4c(OC)cc(F)cc43)ncn2)c1` [Example 1070, [6-(4-Ethylamino-thiophen-2-yl)-pyrimidin-4-yl]-[2-(6-fluoro-4-methoxy-2-methyl-indol-1-yl)-ethyl]-amine], the IC50 against PTGER2 (EP2) (setting [1]) worked out at 10 nM; against PTRGER4 (EP4) (setting [2]), 18 nM.
Regarding `CCN(C=O)c1csc(-c2cc(NCCn3c(C)cc4c(OC)ccc(F)c43)ncn2)c1` [Example 1071, N-Ethyl-N-(5-{6-[2-(7-fluoro-4-methoxy-2-methyl-indol-1-yl)-ethylamino]-pyrimidin-4-yl}-thiophen-3-yl)-formamide], the IC50 against PTGER2 (EP2) (setting [1]) was 23 nM; against PTRGER4 (EP4) (setting [2]), 40 nM.
Consider `CCOc1cc(-c2cc(NCCn3c(C)cc4c(OC)ccc(F)c43)ncn2)sc1NC=O` [Example 1072, N-(3-Ethoxy-5-{6-[2-(7-fluoro-4-methoxy-2-methyl-indol-1-yl)-ethylamino]-pyrimidin-4-yl}-thiophen-2-yl)-formamide], for which the IC50 worked out at 3 nM on PTGER2 (EP2) (setting [1]) and 17 nM against PTRGER4 (EP4) (setting [2]).
For the compound `CCOc1cc(-c2cc(NCCn3c(C)cc4c(OC)ccc(F)c43)ncn2)sc1NC(=O)CC` [Example 1073, N-(3-Ethoxy-5-{6-[2-(7-fluoro-4-methoxy-2-methyl-indol-1-yl)-ethylamino]-pyrimidin-4-yl}-thiophen-2-yl)-propionamide], the IC50 on PTGER2 (EP2) (setting [1]) was found to be 7 nM; on PTRGER4 (EP4) (setting [2]), 14 nM.
Take `CCOc1cc(-c2cc(NCCn3c(C)cc4c(OC)ccc(F)c43)ncn2)sc1NC(=O)CCO` [Example 1074, N-(3-Ethoxy-5-{6-[2-(7-fluoro-4-methoxy-2-methyl-indol-1-yl)-ethylamino]-pyrimidin-4-yl}-thiophen-2-yl)-3-hydroxy-propionamide]: the IC50 against PTGER2 (EP2) (setting [1]) came out at 9 nM; against PTRGER4 (EP4) (setting [2]), 34 nM.
For `CCOc1cc(-c2cc(NCCn3c(C)cc4c(OC)ccc(F)c43)ncn2)sc1NC(N)=O` [Example 1075, (3-Ethoxy-5-{6-[2-(7-fluoro-4-methoxy-2-methyl-indol-1-yl)-ethylamino]-pyrimidin-4-yl}-thiophen-2-yl)-urea], the IC50 against PTGER2 (EP2) (setting [1]) was determined as 7 nM; against PTRGER4 (EP4) (setting [2]), 49 nM.
On the same counts, the results for `COc1ccc(F)c2c1cc(C#N)n2CCNc1cc(-c2cc3ccc(C(=O)O)cc3[nH]2)ncn1` [Example 1076, 2-(6-((2-(2-Cyano-7-fluoro-4-methoxy-1H-indol-1-yl)ethyl)amino)pyrimidin-4-yl)-1H-indole-6-carboxylic acid] are 6 nM and 39 nM.
Regarding `Cc1ccc(F)c2c1cc(C)n2CCNc1cc(-c2ccc(N)cc2)ncn1` [compound 1, [6-(4-Amino-phenyl)-pyrimidin-4-yl]-[2-(7-fluoro-2,4-dimethyl-indol-1-yl)-ethyl]-amine], the IC50 turned out to be 50 nM on PTGER2 (EP2) (setting [3]) and 616 nM at PTRGER4 (EP4) (setting [4]).
On to `COc1nc(-c2cc(NCCn3c(C)cc4c(OC)ccc(F)c43)ncn2)cs1` [compound 2], for which the IC50 stood at 267 nM on PTGER2 (EP2) (setting [3]) and 251 nM against PTRGER4 (EP4) (setting [4]).
For `COc1ncc(-c2cc(NCCn3c(C)cc4c(OC)ccc(F)c43)ncn2)s1` [compound 3], the IC50 on PTGER2 (EP2) (setting [3]) was 100 nM; against PTRGER4 (EP4) (setting [4]), 769 nM.
With `Cc1cc2ccccc2n1CCNc1cc(-c2cc(Cl)c(C(=O)O)s2)ncn1` [compound 5], the figures for the IC50 at PTGER2 (EP2) (setting [3]) and against PTRGER4 (EP4) (setting [4]) were 5 nM and 629 nM, respectively.
In the case of `CCc1cc(-c2cc(NCCn3c(C)cc4ccccc43)ncn2)sc1C(=O)O` [compound 6], the half-maximal inhibitory concentration (IC50) was determined as 3 nM on PTGER2 (EP2) (setting [3]) and 911 nM against PTRGER4 (EP4) (setting [4]).
`Cc1cc(F)cc2c1cc(C)n2CCNc1cc(-c2ccc3cn[nH]c3c2)ncn1` [compound 7, [2-(6-Fluoro-2,4-dimethyl-indol-1-yl)-ethyl]-[6-(1H-indazol-6-yl)-pyrimidin-4-yl]-amine]: the IC50 was determined as 98 nM against PTGER2 (EP2) (setting [3]) and 556 nM against PTRGER4 (EP4) (setting [4]).
Turning to `COc1cccc2c1cc(C)n2CCNc1cc(-c2ccc3[nH]cnc3c2)ncn1` [compound 8, [6-(1H-Benzoimidazol-5-yl)-pyrimidin-4-yl]-[2-(4-methoxy-2-methyl-indol-1-yl)-ethyl]-amine], the values for the IC50 on PTGER2 (EP2) (setting [3]) and on PTRGER4 (EP4) (setting [4]) were 9 nM and 333 nM, respectively.
In the case of `Cc1cc(F)cc2c1cc(C)n2CCNc1cc(-c2ccc3cc[nH]c3c2)ncn1` [compound 10, [2-(6-Fluoro-2,4-dimethyl-indol-1-yl)-ethyl]-[6-(1H-indol-6-yl)-pyrimidin-4-yl]-amine], the results for the IC50 on PTGER2 (EP2) (setting [3]) and against PTRGER4 (EP4) (setting [4]) were 69 nM and 691 nM, respectively.
`Cc1ccc(F)c2c1cc(C)n2CCNc1cc(-c2ccc3c(c2)CCN3)ncn1` [compound 11, [6-(2,3-Dihydro-1H-indol-5-yl)-pyrimidin-4-yl]-[2-(7-fluoro-2,4-dimethyl-indol-1-yl)-ethyl]-amine]: the figures for the IC50 at PTGER2 (EP2) (setting [3]) and on PTRGER4 (EP4) (setting [4]) were 20 nM and 124 nM, respectively.
With `COc1cccc2c1cc(C)n2CCNc1cc(-c2ccc3c(c2)CCN3)ncn1` [compound 12, [6-(2,3-Dihydro-1H-indol-5-yl)-pyrimidin-4-yl]-[2-(4-methoxy-2-methyl-indol-1-yl)-ethyl]-amine], the half-inhibitory concentration (IC50) was 11 nM at PTGER2 (EP2) (setting [3]) and 144 nM against PTRGER4 (EP4) (setting [4]).
For the compound `COc1cccc2c1cc(C)n2CCNc1cc(-c2ccc(CO)c(C)c2)ncn1` [compound 13, (4-{6-[2-(4-Methoxy-2-methyl-indol-1-yl)-ethylamino]-pyrimidin-4-yl}-2-methyl-phenyl)-methanol], the results for the IC50 at PTGER2 (EP2) (setting [3]) and against PTRGER4 (EP4) (setting [4]) were 14 nM and 428 nM, respectively.
For `Cc1cc2c(Cl)ccc(F)c2n1CCNc1cc(-c2cc(Cl)c(C(=O)O)s2)ncn1` [compound 14, 3-Chloro-5-{6-[2-(4-chloro-7-fluoro-2-methyl-indol-1-yl)-ethylamino]-pyrimidin-4-yl}-thiophene-2-carboxylic acid], the IC50 was 4 nM at PTGER2 (EP2) (setting [3]) and 82 nM at PTRGER4 (EP4) (setting [4]).
`Cc1ccc(F)c2c1cc(C)n2CCNc1cc(-c2ccc(C(=O)O)cc2)ncn1` [compound 15, 4-{6-[2-(7-Fluoro-2,4-dimethyl-indol-1-yl)-ethylamino]-pyrimidin-4-yl}-benzoic acid]: the IC50 came out at 62 nM at PTGER2 (EP2) (setting [3]) and 542 nM against PTRGER4 (EP4) (setting [4]).
On to `COc1cccc2c1cc(C)n2CCNc1cc(-c2ccc(CO)c(Cl)c2)ncn1` [compound 16, (2-Chloro-4-{6-[2-(4-methoxy-2-methyl-indol-1-yl)-ethylamino]-pyrimidin-4-yl}-phenyl)-methanol], for which the IC50 against PTGER2 (EP2) (setting [3]) stood at 9 nM; at PTRGER4 (EP4) (setting [4]), 202 nM.
With `COc1cccc2c1cc(C)n2CCNc1cc(-c2ccc(CO)c(F)c2)ncn1` [compound 17, (2-Fluoro-4-{6-[2-(4-methoxy-2-methyl-indol-1-yl)-ethylamino]-pyrimidin-4-yl}-phenyl)-methanol], the values for the IC50 at PTGER2 (EP2) (setting [3]) and at PTRGER4 (EP4) (setting [4]) were 12 nM and 174 nM, respectively.
On the same counts, the results for `Cc1ccc(F)c2c1cc(C)n2CCNc1cc(-c2cc(Cl)c(C(=O)O)s2)ncn1` [compound 18, 3-Chloro-5-{6-[2-(7-fluoro-2,4-dimethyl-indol-1-yl)-ethylamino]-pyrimidin-4-yl}-thiophene-2-carboxylic acid] are 27 nM and 123 nM.
On the same counts, the results for `Cc1cc(F)cc2c1cc(C)n2CCNc1cc(-c2cc(Cl)c(C(=O)O)s2)ncn1` [compound 19, 3-Chloro-5-{6-[2-(6-fluoro-2,4-dimethyl-indol-1-yl)-ethylamino]-pyrimidin-4-yl}-thiophene-2-carboxylic acid] are 17 nM and 99 nM.
In the same order, the values of `Cc1ccc(F)c2c1cc(C)n2CCNc1cc(-c2ccc(CO)c(Cl)c2)ncn1` [compound 20] are 94 nM and 328 nM.
On to `Cc1ccc(F)c2c1cc(C)n2CCNc1cc(-c2ccc(CO)c(F)c2)ncn1` [compound 21, (2-Fluoro-4-{6-[2-(7-fluoro-2,4-dimethyl-indol-1-yl)-ethylamino]-pyrimidin-4-yl}-phenyl)-methanol], for which the results for the IC50 on PTGER2 (EP2) (setting [3]) and against PTRGER4 (EP4) (setting [4]) were 42 nM and 287 nM, respectively.
For `Cc1cc(-c2cc(NCCn3c(C)cc4c(C)ccc(F)c43)ncn2)ccc1CO` [compound 22], the IC50 was determined as 78 nM against PTGER2 (EP2) (setting [3]) and 369 nM against PTRGER4 (EP4) (setting [4]).
As for `COc1cccc2c1cc(C)n2CCNc1cc(-c2cc(Cl)c(C(=O)O)s2)ncn1` [compound 23, 3-Chloro-5-{6-[2-(4-methoxy-2-methyl-indol-1-yl)-ethylamino]-pyrimidin-4-yl}-thiophene-2-carboxylic acid], the IC50 against PTGER2 (EP2) (setting [3]) came to 3 nM; against PTRGER4 (EP4) (setting [4]) it was 143 nM.
In the case of `COc1cccc2c1cc(C)n2CCNc1cc(-c2ccc(CN)c(F)c2)ncn1` [compound 24], the IC50 against PTGER2 (EP2) (setting [3]) came to 94 nM; at PTRGER4 (EP4) (setting [4]) it was 895 nM.
With `Cc1ccc(F)c2c1cc(C)n2CCNc1cc(-c2ccc(C(N)=O)cc2)ncn1` [compound 25, 4-{6-[2-(7-Fluoro-2,4-dimethyl-indol-1-yl)-ethylamino]-pyrimidin-4-yl}-benzamide], the IC50 against PTGER2 (EP2) (setting [3]) was 27 nM; at PTRGER4 (EP4) (setting [4]) it was 616 nM.
For the compound `CCc1cc(-c2cc(NCCn3c(C)cc4c(C)cccc43)ncn2)ccc1C(=O)O` [compound 26, 4-{6-[2-(2,4-Dimethyl-indol-1-yl)-ethylamino]-pyrimidin-4-yl}-2-ethyl-benzoic acid], the values for the IC50 against PTGER2 (EP2) (setting [3]) and at PTRGER4 (EP4) (setting [4]) were 9 nM and 975 nM, respectively.
For the compound `COc1ccc(F)c2c1cc(C)n2CCNc1cc(-c2ccc(CO)c(Cl)c2)ncn1` [compound 27, (2-Chloro-4-{6-[2-(7-fluoro-4-methoxy-2-methyl-indol-1-yl)-ethylamino]-pyrimidin-4-yl}-phenyl)-methanol], the results for the IC50 against PTGER2 (EP2) (setting [3]) and against PTRGER4 (EP4) (setting [4]) were 10 nM and 90 nM, respectively.
